{"source": "patent EP0219782A2", "about": "“Use of angiotensin-converting enzyme inhibitors in the treatment of atherosclerosis, thrombosis and peripheral vascular disease” (HOECHST AKTIENGESELLSCHAFT, priority 1985, dated 1987)", "key": {"Plättchenaggregation [1]": {"tested_on": "Plättchenaggregation", "assay": "Platelet aggregation in platelet-rich rabbit plasma in vitro (light transmission, Born)", "assay_type": "cell-based, Kaninchen", "excerpt": "(§1) Plättchenreiches Kaninchenplasma wird wie von Born (Arzneimittel-Forsch. 31, 2012 (1981)) angegeben, gewonnen. Die Plättchenaggregation wird durch Erhöhung des Lichtdurchganges durch eine Küvette, die dieses Plasma enthält, gemessen. Die Plättchenzahl wird durch Verdünnung mit autologem, plättchenarmem Plasma auf 450000/mm^s eingestellt. […] Dagegen wird eine durch 4 pg/ml PGI2 bewirkte Aggregationshemmung gegen Arachidonsäure durch die Verbindung der Formel II in genannten Dosisbereich auf 100% gesteigert."}, "Plättchenaggregation [2]": {"tested_on": "Plättchenaggregation", "assay": "Chronic study: ex vivo platelet aggregation after 14 days of dosing in conscious rabbits", "design": "species or system Kaninchen", "conditions": "1 mg/kg/d for 14 days; found in all animals", "excerpt": "as §1\n(§2) Nach 1 Stunde werden die Tiere getötet und plättchenreiches Plasma gewonnen. Die Plättchenaggregation wird wie unter A) beschrieben bestimmt.\nWache Kaninchen erhielten 1 mg/kg/d der Verbindung der Formel II für 14 Tage, dann wurde wie unter 1) beschrieben weiter verfahren."}, "Plättchenaggregation [3]": {"tested_on": "Plättchenaggregation", "assay": "Acute study: ex vivo platelet aggregation after a single oral dose in conscious rabbits", "design": "species or system Kaninchen", "conditions": "single oral dose 1,0 - 10,0 mg/kg, plasma taken after 1 hour", "excerpt": "as §1\nWache Kaninchen erhielten eine einmalige orale Dosis von 1,0 - 10,0 mg/kg der Verbindung der Formel II.\nas §2"}}}
{"smiles": "CCOC(=O)[C@H](CCc1ccccc1)N[C@@H](C)C(=O)N1[C@H](C(=O)O)C[C@@H]2CCC[C@@H]21", "note": "[Formel II, N-(l-S-Carbethoxy-3-phenyl-propyl)-S-alanyl-cis-endo-2-azabicyclo[3.3.0]octan-3-S-carbonsäure]", "values": [{"measurement": "durch PGI2 bewirkte Aggregationshemmung gegen Arachidonsäure, gesteigert auf", "setting": "Plättchenaggregation [1]; 4 pg/ml PGI2, compound at 0.1-10 pg/ml Plasma", "value": 100, "unit": "%"}, {"measurement": "Einfluß auf die durch Kollagen ausgelöste Aggregation", "setting": "Plättchenaggregation [1]; 0.1-10 pg/ml Plasma, stimulus 4 pg/ml Kollagen", "value": "keinen Einfluß"}, {"measurement": "Einfluß auf die durch Arachidonsäure ausgelöste Aggregation", "setting": "Plättchenaggregation [1]; 0.1-10 pg/ml Plasma, stimulus 0.24 mmol/1 Arachidonsäure", "value": "keinen Einfluß"}, {"measurement": "Einfluß auf die durch ADP ausgelöste Aggregation", "setting": "Plättchenaggregation [1]; 0.1-10 pg/ml Plasma, stimulus 5 mmol/1 ADP", "value": "keinen Einfluß"}, {"measurement": "durch ADP ausgelöste Plättchenaggregation", "setting": "Plättchenaggregation [2]", "value": "ausgeprägte Inhibierung"}, {"measurement": "durch Arachidonsäure ausgelöste Plättchenaggregation", "setting": "Plättchenaggregation [2]", "value": "ausgeprägte Inhibierung"}, {"measurement": "Aggregation gegenüber ADP", "setting": "Plättchenaggregation [3]", "value": "vermindert"}, {"measurement": "Aggregation gegenüber Kollagen", "setting": "Plättchenaggregation [3]", "value": "vermindert"}, {"measurement": "Potenzierung der PGI2-Wirkung", "setting": "Plättchenaggregation [3]", "value": "ebenfalls beobachtet"}, {"measurement": "Aggregation gegenüber Arachidonsäure", "setting": "Plättchenaggregation [3]; effect especially against Arachidonsäure", "value": "vermindert"}]}
